Patent US9951066B2, “Compositions, uses and methods for making them” (Pimera, Inc., priority 2014, dated 2018)
Counter-ions that a name gives are not always drawn. Like-named read-outs stand apart in the source and are kept apart here.

Tests used:
Type in all cases: cell-based
[1] = test system: A375 cell line; experiment: Alamar Blue cell viability assay, A375; settings: Homo sapiens, A-375, cell proliferation inhibition, Alamar Blue, 96 h incubation
Procedure: (§1) Inhibitory activity on cell proliferation of representative compounds of the invention was determined using an Alamar Blue cell viability assay as described hereafter.
(§2) 3000 cancer cells in 100 uL of cell culture media were plated in each well of a 96-well clear bottom, black wall cell culture-pretreated plate.
(§3) The next day compounds are serially diluted (3-fold in cell culture media) across a 96-well polypropylene mother plate from row A to row F, to yield 6 concentrations (10 uM, 3.3 uM, 1.1 uM, 370 nM, 124 nM and 41 nM) for each test compound. Rows G and H contain only DMSO.
(§4) Once titrations are made, the media in plates with cells were disposed and 100 μL of drug dilutions are transferred to plates with cells. After a ninety six-hour incubation at 37° C., 10 uL of resazurin solution from Alamar Blue Cell Viability kit (Invitrogen, Carlsbad, Calif.) was added to the media and cells were incubated at 37° C. for three more hours. At the end of this incubation the production of resofurin was measured using Spectrmax M2 microplate reader (Molecular Devices, Sunnyvale, Calif.)

[2] = test system: ES.2; experiment: Alamar Blue cell viability assay, ES.2; settings: Homo sapiens
Procedure: as §1, §2, §3, §4

[3] = test system: Hs.294T; experiment: Alamar Blue cell viability assay, Hs.294T; settings: Homo sapiens, 96 h incubation, read-out: cell proliferation inhibition Hs.294T
Procedure: as §1, §2, §3, §4

[4] = test system: WM-115; experiment: Alamar Blue cell viability assay, WM-115; settings: Homo sapiens, 96 h incubation, read-out: cell proliferation inhibition WM-115
Procedure: as §1, §2, §3, §4

[5] = test system: Hep G2; experiment: Alamar Blue cell viability assay, Hep G2; settings: Homo sapiens, HepG2, 96 h incubation, read-out: cell proliferation inhibition Hep G2
Procedure: as §1, §2, §3, §4

[6] = test system: SKM-1; experiment: Alamar Blue cell viability assay, SKM-1; settings: Homo sapiens, 96 h incubation, read-out: cell proliferation inhibition SKM-1
Procedure: as §1, §2, §3, §4

[7] = test system: KG-1; experiment: Alamar Blue cell viability assay, KG-1; settings: Homo sapiens, 96 h incubation, read-out: cell proliferation inhibition KG-1
Procedure: as §1, §2, §3, §4

[8] = test system: ML-2; experiment: Alamar Blue cell viability assay, ML-2; settings: Homo sapiens, 96 h incubation, read-out: cell proliferation inhibition ML-2
Procedure: as §1, §2, §3, §4

[9] = test system: NB4-Av; experiment: Alamar Blue cell viability assay, NB4-Av; settings: 96 h incubation, read-out: cell proliferation inhibition NB4-Av
Procedure: as §1, §2, §3, §4

[10] = test system: NOMO-1; experiment: Alamar Blue cell viability assay, NOMO-1; settings: Homo sapiens, 96 h incubation, read-out: cell proliferation inhibition NOMO-1
Procedure: as §1, §2, §3, §4

[11] = test system: SKM_1_AV; experiment: Alamar Blue cell viability assay, SKM_1_AV; settings: 96 h incubation, read-out: cell proliferation inhibition SKM_1_AV
Procedure: as §1, §2, §3, §4

[12] = test system: B16-F10; experiment: Alamar Blue cell viability assay, B16-F10; settings: Mus musculus, 96 h incubation, read-out: cell proliferation inhibition B16-F10
Procedure: as §1, §2, §3, §4

[13] = test system: AGS; experiment: Alamar Blue cell viability assay, AGS; settings: Homo sapiens, 96 h incubation, read-out: cell proliferation inhibition AGS
Procedure: as §1, §2, §3, §4

[14] = test system: MCF7; experiment: Alamar Blue cell viability assay, MCF7; settings: Homo sapiens, 96 h incubation, read-out: cell proliferation inhibition MCF7
Procedure: as §1, §2, §3, §4

[15] = test system: MDA-MB-231; experiment: Alamar Blue cell viability assay, MDA-MB-231; settings: Homo sapiens, 96 h incubation, read-out: cell proliferation inhibition MDA-MB-231
Procedure: as §1, §2, §3, §4

[16] = test system: DLD-1; experiment: Alamar Blue cell viability assay, DLD-1; settings: Homo sapiens, 96 h incubation, read-out: cell proliferation inhibition DLD-1
Procedure: as §1, §2, §3, §4

[17] = test system: CT26; experiment: Alamar Blue cell viability assay, CT26; settings: Mus musculus, 96 h incubation, read-out: cell proliferation inhibition CT26
Procedure: as §1, §2, §3, §4

[18] = test system: LnCAP; experiment: Alamar Blue cell viability assay, LnCAP; settings: Homo sapiens, 96 h incubation, read-out: cell proliferation inhibition LnCAP
Procedure: as §1, §2, §3, §4

[19] = test system: 4T1; experiment: Alamar Blue cell viability assay, 4T1; settings: Mus musculus, 96 h incubation, read-out: cell proliferation inhibition 4T1
Procedure: as §1, §2, §3, §4

[20] = test system: NCI-H1299; experiment: Alamar Blue cell viability assay, NCI-H1299; settings: Homo sapiens, 96 h incubation, read-out: cell proliferation inhibition NCI-H1299
Procedure: as §1, §2, §3, §4

[21] = test system: HCT-116; experiment: Alamar Blue cell viability assay, HCT-116; settings: Homo sapiens, 96 h incubation, read-out: cell proliferation inhibition HCT-116
Procedure: as §1, §2, §3, §4

[22] = test system: A549; experiment: Alamar Blue cell viability assay, A549; settings: Homo sapiens, 96 h incubation, read-out: cell proliferation inhibition A549
Procedure: as §1, §2, §3, §4

[23] = test system: PC-3; experiment: Alamar Blue cell viability assay, PC-3; settings: Homo sapiens, 96 h incubation, read-out: cell proliferation inhibition PC-3
Procedure: as §1, §2, §3, §4

[24] = test system: HT-1080; experiment: Alamar Blue cell viability assay, HT-1080; settings: Homo sapiens, 96 h incubation, read-out: cell proliferation inhibition HT-1080
Procedure: as §1, §2, §3, §4

[25] = test system: A2058; experiment: Alamar Blue cell viability assay, A2058; settings: Homo sapiens, cell proliferation inhibition, 96 h incubation, read-out: Pharmaceutical activity IC50 A2058
Procedure: as §1, §2, §3, §4

[26] = test system: Malme-3M; experiment: Alamar Blue cell viability assay, Malme-3M; settings: Homo sapiens, cell proliferation inhibition, 96 h incubation, read-out: Pharmaceutical activity IC50 Malme-3M
Procedure: as §1, §2, §3, §4

[27] = test system: SK-MEL 28; experiment: Alamar Blue cell viability assay, SK-MEL 28; settings: Homo sapiens, cell proliferation inhibition, 96 h incubation, read-out: Pharmaceutical activity IC50 SK-MEL 28
Procedure: as §1, §2, §3, §4

[28] = test system: 2008; experiment: Alamar Blue cell viability assay, 2008; settings: cell proliferation inhibition, 96 h incubation, read-out: Pharmaceutical activity IC50 2008
Procedure: as §1, §2, §3, §4

[29] = test system: A2780; experiment: Alamar Blue cell viability assay, A2780; settings: Homo sapiens, cell proliferation inhibition, 96 h incubation, read-out: Pharmaceutical activity IC50 A2780
Procedure: as §1, §2, §3, §4

[30] = test system: U-87 MG; experiment: Alamar Blue cell viability assay, U-87 MG; settings: Homo sapiens, cell proliferation inhibition, 96 h incubation, read-out: Pharmaceutical activity IC50 U-87 MG
Procedure: as §1, §2, §3, §4

[31] = test system: kuramochi; experiment: Alamar Blue cell viability assay, kuramochi ovarian cell line; settings: 96 h incubation, read-out: IC50 in ovarian cell lines kuramochi
Procedure: as §1, §2, §3, §4

[32] = test system: JHOC7; experiment: Alamar Blue cell viability assay, JHOC7 ovarian cell line; settings: 96 h incubation, read-out: IC50 in ovarian cell lines JHOC7
Procedure: as §1, §2, §3, §4

[33] = test system: JHOC9; experiment: Alamar Blue cell viability assay, JHOC9 ovarian cell line; settings: 96 h incubation, read-out: IC50 in ovarian cell lines JHOC9
Procedure: as §1, §2, §3, §4

[34] = test system: JHOM1; experiment: Alamar Blue cell viability assay, JHOM1 ovarian cell line; settings: 96 h incubation, read-out: IC50 in ovarian cell lines JHOM1
Procedure: as §1, §2, §3, §4

[35] = test system: EF-21; experiment: Alamar Blue cell viability assay, EF-21 ovarian cell line; settings: 96 h incubation, read-out: IC50 in ovarian cell lines EF-21
Procedure: as §1, §2, §3, §4

[36] = test system: TOV112D; experiment: Alamar Blue cell viability assay, TOV112D ovarian cell line; settings: Homo sapiens, 96 h incubation, read-out: IC50 in ovarian cell lines TOV112D
Procedure: as §1, §2, §3, §4

[37] = read-out: Pharmaceutical activity IC50 A375
[38] = Table 2, 96 h incubation, read-out: cell proliferation inhibition ES.2
[39] = Table 4, read-out: Pharmaceutical activity in A375 cell line IC50

| SMILES | IC50 [1, 37] | IC50 [5] | IC50 [6] | IC50 [7] | IC50 [8] | IC50 [9] | IC50 [10] | IC50 [11] | IC50 [12] | IC50 [13] | IC50 [14] | IC50 [15] | IC50 [16] | IC50 [17] | IC50 [18] | IC50 [19] | IC50 [20] | IC50 [21] | IC50 [22] | IC50 [23] | other results |
| --- | --- | --- | --- | --- | --- | --- | --- | --- | --- | --- | --- | --- | --- | --- | --- | --- | --- | --- | --- | --- | --- |
| CN1CCCN(c2ccc3cc(C(=O)O)c4nc5ccccc5n4c3n2)CC1 [Compound 1A, 2-(4-methyl-[1,4]diazepan-1-yl)-1,7,11b-triaza-benzo[c]fluorene-6-carboxylate sodium salt] | < 1000 nM | < 1000 nM | < 1000 nM | < 1000 nM | < 1000 nM | < 1000 nM | < 1000 nM | < 1000 nM | 5 to 10 µM | 1000 to 5000 nM | 1 to 5 µM | 1000 to 5000 nM | 1000 to 5000 nM | 5 to 10 µM | 5 to 10 µM | 5 to 10 µM | 1 to 5 µM | < 1000 nM | 5 to 10 µM | 1000 to 5000 nM | IC50 [2, 38]: < 1000 nM; IC50 [3]: < 1000 nM; IC50 [4]: < 1000 nM; IC50 [24]: 1 to 5 µM |
| Cc1cnc(CNC(=O)c2cc3ccc(N4CCCN(C)CC4)nc3n3c2nc2ccccc23)cn1 [Compound 2E, 2-(4-methyl-[1,4]diazepan-1-yl)-1,7,11b-triazabenzo[c]fluorene-6-carboxylic acid (5-methylpyrazin-2-ylmethyl)-amide] | < 1000 nM | – | – | – | – | – | – | – | – | – | – | – | – | – | – | – | – | – | – | – | IC50 [25]: 5 to 10 µM |
| CNC(=O)c1cc2ccc(N3CCCN(C)CC3)nc2n2c1nc1ccccc12 [Compound 2G, 2-(4-methyl-[1,4]diazepan-1-yl)-1,7,11b-triazabenzo[c]fluorene-6-carboxylic acid methylamide] | < 1000 nM | < 1000 nM | < 1000 nM | < 1000 nM | < 1000 nM | < 1000 nM | < 1000 nM | < 1000 nM | 1 to 5 µM | < 1000 nM | 1 to 5 µM | < 1000 nM | < 1000 nM | 1 to 5 µM | 1 to 5 µM | 5 to 10 µM | 1 to 5 µM | < 1000 nM | 1 to 5 µM | < 1000 nM | IC50 [25]: < 1 µM; IC50 [26]: < 1000 nM; IC50 [27]: < 1000 nM; IC50 [28]: < 1000 nM; IC50 [29]: < 1000 nM; IC50 ([2]; Table 1, cell proliferation inhibition, 96 h incubation, read-out: Pharmaceutical activity IC50 ES.2): < 1000 nM; IC50 [2, 38]: < 1000 nM; IC50 [30]: < 1000 nM; IC50 [3]: < 1000 nM; IC50 [4]: 1000 to 5000 nM; IC50 [24]: 1 to 5 µM; IC50 [31]: < 1000 nM; IC50 [32]: < 1000 nM; IC50 [33]: < 1000 nM; IC50 [34]: < 1000 nM; IC50 [35]: < 1000 nM; IC50 [36]: < 1000 nM |
| C[C@@H]1CN(c2ccc3cc(C#N)c4nc5ccccc5n4c3n2)C[C@H](C)N1 [Compound 3A, 2-((3S,5R)-3,5-dimethylpiperazin-1-yl)-1,7,11b-triaza-benzo[c]fluorene-6-carbonitrile] | < 1000 nM | < 1000 nM | < 1000 nM | < 1000 nM | < 1000 nM | < 1000 nM | < 1000 nM | < 1000 nM | 1 to 5 µM | < 1000 nM | 5 to 10 µM | < 1000 nM | < 1000 nM | 5 to 10 µM | 5 to 10 µM | 5 to 10 µM | 5 to 10 µM | < 1000 nM | 5 to 10 µM | 1000 to 5000 nM | IC50 [24]: 5 to 10 µM |
| CCN1CCN(c2ccc3cc(C#N)c4nc5ccccc5n4c3n2)CC1 [Compound 3B, 2-(4-ethylpiperazin-1-yl)-1,7,11b-triaza-benzo[c]fluorene-6-carbonitrile] | < 1000 nM | < 1000 nM | < 1000 nM | – | – | – | – | – | – | – | – | – | – | – | – | – | – | – | – | – | – |
| O=C(NCCN1CCOCC1)c1cc2cnccc2n2c1nc1ccccc12 [Compound 13F, 3,7,11b-Triaza-benzo[c]fluorene-6-carboxylic acid (2-morpholin-4-yl-ethyl)-amide] | – | – | – | – | – | – | – | – | – | – | – | – | – | – | – | – | – | – | – | – | IC50 [1, 39]: 5000 to 10000 nM |
| O=C(NCCN1CCCC1)c1cc2cnccc2n2c1nc1ccccc12 [Compound 13G] | – | – | – | – | – | – | – | – | – | – | – | – | – | – | – | – | – | – | – | – | IC50 [1, 39]: < 1000 nM |
